Data on 9 molecules can be found in patent US10189857B2, “Positive allosteric modulators of the muscarinic acetylcholine receptor M4” (Vanderbilt University, priority 2016, dated 2019).

For this experiment, the target named is T1, Human M4 (Homo sapiens, UniProt P08173).
T1 construct: expressed in transfected cells; host or cells: CHO-K1 (American Type Culture Collection), stably expressing M4 and Gqi5
T1 sequence (P08173 1-479): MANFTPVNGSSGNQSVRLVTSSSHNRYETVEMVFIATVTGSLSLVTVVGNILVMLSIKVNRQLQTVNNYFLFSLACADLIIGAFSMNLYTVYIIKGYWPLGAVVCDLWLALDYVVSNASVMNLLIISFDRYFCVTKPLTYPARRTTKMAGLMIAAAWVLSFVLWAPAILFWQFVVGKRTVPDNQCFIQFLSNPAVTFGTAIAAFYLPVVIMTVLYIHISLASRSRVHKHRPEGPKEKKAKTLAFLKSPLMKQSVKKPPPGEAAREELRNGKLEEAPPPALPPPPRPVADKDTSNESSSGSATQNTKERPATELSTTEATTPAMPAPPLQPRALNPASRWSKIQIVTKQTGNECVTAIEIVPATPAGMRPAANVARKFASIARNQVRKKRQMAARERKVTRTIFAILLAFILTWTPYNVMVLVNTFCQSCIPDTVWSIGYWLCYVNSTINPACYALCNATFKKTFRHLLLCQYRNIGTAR
The experiment in a line: mAChR M4 cell-based functional assay (calcium flux, potentiation of EC20 acetylcholine response). The following applies: M4/Gqi5/CHO-K1 cells; for Emax at 30 µM: % ACh maximum at 30 μM; for EC50: PAM activity as increase in EC20 acetylcholine response. The protocol: Human M4 cDNA, along with the chimeric G protein Gqi5, were transfected into Chinese hamster ovary (CHO-K1) cells purchased from the American Type Culture Collection using Lipofectamine2000. M4/Gqi5/CHO cells were grown in Ham's F-12 medium containing 10% heat-inactivated fetal bovine serum (FBS), 20 mM HEPES, 500 μg/mL G418 sulfate, and 200 μg/mL Hygromycin B.
For high throughput measurement of agonist-evoked increases in intracellular calcium, CHO-K1 cells stably expressing muscarinic receptors were plated in growth medium lacking G418 and hygromycin at 15,000 cells/20 μL/well in Greiner 384-well black-walled, tissue culture (TC)-treated, clear-bottom plates (VWR). Cells were incubated overnight at 37° C. and 5% CO2. The next day, cells were washed using an ELX 405 (BioTek) with assay buffer; the final volume was then aspirated to 20 μL. Next, 20 μL of a 2.3 μM stock of Fluo-4/acetoxymethyl ester (Invitrogen, Carlsbad, Calif.), prepared as a 2.3 mM stock in DMSO and mixed in a 1:1 ratio with 10% (w/v) Pluronic F-127 and diluted in assay buffer, was added to the wells and the cell plates were incubated for 50 min at 37° C. and 5% CO2. Dye was removed by washing with the ELX 405 and the final volume was aspirated to 20 μL. Compound master plates were formatted in an 11 point concentration-response curve (CRC) format (1:3 dilutions) in 100% DMSO with a starting concentration of 10 mM using a BRAVO liquid handler (Agilent). Test compound CRCs were then transferred to daughter plates (240 nL) using the Echo acoustic plate reformatter (Labcyte, Sunnyvale, Calif.) and then diluted into assay buffer (40 μL) to a 2× stock using a Thermo Fisher Combi (Thermo Fisher Scientific, Waltham, Mass.).
Calcium flux was measured using the Functional Drug Screening System (FDSS) 6000 or 7000 (Hamamatsu Corporation, Tokyo, Japan) as an increase in the fluorescent static ratio. Compounds were applied to cells (20 μL, 2×) using the automated system of the FDSS at 2-4 seconds into the protocol and the data were collected at 1 Hz. At approximately 144 s, […] an EC20 concentration of the muscarinic receptor agonist acetylcholine was added (5×), followed by the addition of 12 μL of an EC80 concentration of acetylcholine at approximately the 230 s time point (5×). Agonist activity was analyzed as a concentration-dependent increase in calcium mobilization upon compound addition. Positive allosteric modulator activity was analyzed as a concentration-dependent increase in the EC20 acetylcholine response. Antagonist activity was analyzed as a concentration-dependent decrease in the EC80 acetylcholine response. Concentration-response curves were generated using a four-parameter logistical equation in XLFit curve fitting software (IDBS, Bridgewater, N.J.) for Excel (Microsoft, Redmond, Wash.) or Prism (GraphPad Software, Inc., San Diego, Calif.) or the Domatics software platform (Domatics, Bishop's Stortford, UK).
Compounds were synthesized as described above. Activity (EC50 and Emax) was determined in the mAChR M4 cell-based functional assay as described above and the data are shown in Table 2. The compound numbers correspond to the compound numbers used in Table 1.
(A change in cytosolic calcium serves as a functional read-out for many receptors and channels.)

With `Cc1c2c(N)c(C(=O)NC3CCC3)sc2nn2cnnc12` [Compound 6, 8-amino-N-cyclobutyl-9-methylthieno[3,2-e][1,2,4]triazolo[4,3-b]pyridazine-7-carboxamide], the Emax at 30 µM was found to be 71.8% and the EC50 is 890 nM.
For the molecule `COc1ccc(CNC(=O)c2sc3nn4cnnc4c(C)c3c2N)cc1` [Compound 4, 8-amino-N-(4-methoxybenzyl)-9-methylthieno[3,2-e][1,2,4]triazolo[4,3-b]pyridazine-7-carboxamide], the Emax at 30 µM came to 80.6% and the EC50 amounted to 670 nM.
As to `Cc1c2c(N)c(C(=O)N3CCCC3)sc2nn2cnnc12` [Compound 2, (8-amino-9-methylthieno[3,2-e][1,2,4]triazolo[4,3-b]pyridazin-7-yl)(pyrrolidin-1-yl)methanone], the Emax at 30 µM amounted to 72.2% and the EC50 was found to be 9670 nM.
As for `Cc1c2c(N)c(C(=O)NC3CCN(c4ccccc4)CC3)sc2nn2cnnc12` [Compound 7, 8-amino-9-methyl-N-(1-phenylpiperidin-4-yl)thieno[3,2-e][1,2,4]triazolo[4,3-b]pyridazine-7-carboxamide], the Emax at 30 µM worked out at 42.5% and the EC50 was determined as 7000 nM.
On the same counts, the results for `Cc1c2c(N)c(C(=O)NCc3ccc(F)cc3)sc2nn2cnnc12` [Compound 9, 8-amino-N-(4-fluorobenzyl)-9-methylthieno[3,2-e][1,2,4]triazolo[4,3-b]pyridazine-7-carboxamide] are 76.3% and 1120 nM.
With `Cc1c2c(N)c(C(=O)N3CCC(c4ccccc4)C3)sc2nn2cnnc12` (stereo not drawn) [Compound 1, (8-amino-9-methylthieno[3,2-e][1,2,4]triazolo[4,3-b]pyridazin-7-yl)(3-phenylpyrrolidin-1-yl)methanone], the Emax at 30 µM came out at 38.8% and the EC50 was found to be 3330 nM.
In the case of `Cc1c2c(N)c(C(=O)NCc3cccc(F)c3)sc2nn2cnnc12` [Compound 8, 8-amino-N-(3-fluorobenzyl)-9-methylthieno[3,2-e][1,2,4]triazolo[4,3-b]pyridazine-7-carboxamide], the Emax at 30 µM was 78% and the half-maximal effective concentration (EC50) came to 370 nM.
In the same order, the values of `Cc1c2c(N)c(C(=O)NC3CC3)sc2nn2cnnc12` [Compound 5, 8-amino-N-cyclopropyl-9-methylthieno[3,2-e][1,2,4]triazolo[4,3-b]pyridazine-7-carboxamide] are 74.2% and 290 nM.
For the molecule `Cc1c2c(N)c(C(=O)NC3Cc4ccccc4C3)sc2nn2cnnc12` [Compound 3, 8-amino-N-(2,3-dihydro-1H-inden-2-yl)-9-methylthieno[3,2-e][1,2,4]triazolo[4,3-b]pyridazine-7-carboxamide], the Emax at 30 µM amounted to 82.3% and the EC50 turned out to be 90 nM.

A word on the Emax: it is the greatest response seen or fitted, relative to the assay's reference. What is called EC50 is the concentration giving half of the maximal effect.
